{"source": "patent US20040166151A1", "about": "“Lipid-based drug delivery systems containing phospholipase A2 degradable lipid derivatives and the therapeutic uses thereof” (priority 2000, published 2004)", "key": {"[1]": {"experiment": "Calcein release across target membrane on adding hydrolysis products in the absence of PLA2", "conditions": "25 μM target membranes, 39° C.", "procedure": "Total release after 20 min of the fluorescent model drug calcein across the target membrane as a function of adding increasing amounts of lyso-palmitoyl phospholipid and palmitic acid, separately, and in a 1:1 mixture. The concentration of the target membranes is 25 μM in a HEPES buffer with pH=7.5 at a temperature of 39° C.\nThe experimental model system consists of a polymer-coated liposome carrier and a model target membrane. The carrier is a 100 nm unilamellar liposome made of dipalmitoyl phosphatidylcholine lipids (DPPC) with 2.5 mol % lipopolymer of the type dipalmitoyl phosphatidylethanolamine (DPPE)-PEG2000. The target membrane is another liposome made of 1,2-O-dioctadecyl-sn-glycero-phosphatidylcholine (D-O-SPC) which is a phospholipid where the acyl linkages of the stearoyl chains are ether bonds. In contrast to DPPC, D-O-SPC is inert towards PLA2-catalysed hydrolysis thereby mimicking the stability of an intact target cell membrane toward degradation by its own enzymes. […] The permeation of calcein across the D-O-SPC target membrane is subsequently monitored by the increase in fluorescence. […]"}, "mice": {"tested_on": "mice", "experiment": "In vivo hemolysis assay", "conditions": "i.v., 50 mg/kg", "procedure": "Groups of mice (n=5/group; weight 18-22 g) were treated i.v. with buffer (PBS), ET-18-OCH3 (50 mg/kg), and liposomes composed of 1-O-DPPC with 5 mol % 1-O-DPPE-PEG2000 (68.7 and 137.5 mg/kg). 30 min after injection, 100 μl blood was collected into heparinised tubes directly from decapitated, CO2-anesthetised mice. The blood was centrifuged at 500×G for 10 min, and plasma was removed and stored at −20° C. until analysed.\nThe degree of hemolysis was measured by absorbance at 550 nm using a Perkin-Elmer 320 scanning spectrophotometer. 25 μl plasma was mixed with 2,5 ml PBS or 2.5 ml 10% triton X-100. 100 percent hemolysis was defined as the maximum amount of hemolysis obtained from the plasma of PBS treated mice mixed with 10% Triton X-100 and 0 percent as plasma from PBS treated mice mixed with PBS."}, "[2]": {"tested_on": "human red blood cells (RBC)", "experiment": "Hemolysis assay", "conditions": "low concentrations, 37° C., 20 hours", "procedure": "Briefly, each sample was serially diluted with phosphate buffered saline (PBS), and 0.5 ml of each dilute suspension was mixed with 0.5 ml washed human red blood cells (RBC) [4% in PBS (v/v)]. Sample and standard were placed in a 37° C. incubator and agitated for 20 hours. Tubes were centrifuged at low speed (2000×G) for 10 minutes and 200 μl of the supernatant was quantitated by absorbance at 550 nm. 100 percent hemolysis was defined as the maximum amount of hemolysis obtained from the detergent Triton X-100.\n1-O-octadecyl-2-O-methyl-sn-glycero-3-phosphocholine (ET-18-OCH3) in PBS was included in the assay as a reference.\nBriefly, each sample was serially diluted with PBS, and 0.5 ml of each dilute suspension of 1-O-DPPC liposomes were mixed with 0.5 ml washed human red blood cells (RBC) [4% in PBS (v/v)]. For controls, 0.5 ml of the red blood cell suspension was mixed with either 0.5 ml buffer solution (negative hemolysis control) or 0.5 ml water (positive hemolysis control). Samples and standard were placed in a 37° C. incubator and agitated for 20 hours. Tubes were centrifuged at low speed (2000×G) for 10 minutes to form RBCs pellets. 200 μl of the supernatant was quantitated by absorbance at 550 nm using a Perkin-Elmer 320 scanning spectrophotometer. 100 percent hemolysis was defined as the maximum amount of hemolysis obtained from the detergent Triton X-100."}, "extracellular PLA2": {"target": "T1, extracellular PLA2 (Agkistrodon piscivorus piscivorus, UniProt P51972)", "T1 construct": "Purified snake venom PLA2 (Agkistrodon piscivorus piscivorus) was a generous gift; tissue gift from dr; R. L. Biltonen; host or cells: snake venom of Agkistrodon piscivorus piscivorus", "T1 sequence (P51972 1-123)": "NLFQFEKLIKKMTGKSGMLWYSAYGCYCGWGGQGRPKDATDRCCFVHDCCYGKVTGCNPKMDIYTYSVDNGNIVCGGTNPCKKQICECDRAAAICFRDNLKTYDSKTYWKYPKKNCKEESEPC", "experiment": "Effect of cholesterol content of liposomes on extracellular PLA2 activity", "type": "biochemical", "from_the_text": "Short-chain phospholipids, such as didecanoyl phosphatidylcholine (DCPC), activate extracellular PLA2. The effect on calcein permeation across the target membranes induced by incorporation of a small amount of DCPC into the carrier PEG-liposomes is also shown in FIG. 12.a. […] In contrast we find that a small amount of cholesterol (≈3 mol %) activates extracellular PLA2. These significant findings are of particular interest since the blood circulation time of PEG-liposomes has been reported to be almost the same without cholesterol as with large amounts of cholesterol."}}}
{"smiles": "CCCCCCCCCCCCCCCC(=O)O", "note": "[fatty acid, palmitic acid]", "values": [{"measurement": "rate of calcein release across the target membrane (FIG. 13)", "setting": "[1]", "value": "increased rate"}]}
{"smiles": "CCCCCCCCCCCCCCCCCCOC[C@H](COP(=O)([O-])OCC[N+](C)(C)C)OC", "note": "[ET-18-OCH3]", "values": [{"measurement": "Survival (30 min), number of surviving mice", "setting": "mice", "value": "0/5"}, {"measurement": "mortality of treated mice", "setting": "mice", "value": "died within the 30 minutes period"}, {"measurement": "hemolysis (FIG. 6)", "setting": "[2]", "value": "significant degree of hemolysis"}]}
{"smiles": "CC(C)CCC[C@@H](C)[C@H]1CC[C@H]2[C@@H]3CC=C4C[C@@H](O)CC[C@]4(C)[C@H]3CC[C@]12C", "note": "[cholesterol]", "values": [{"measurement": "extracellular PLA2 activity", "setting": "extracellular PLA2; ≈3 mol % cholesterol incorporated into liposomes", "value": "activates"}, {"measurement": "extracellular PLA2 activity", "setting": "extracellular PLA2; ≈20 mol % cholesterol incorporated into liposomes, data not shown", "value": "deactivated"}]}
